Measured values as given in BigSolDB 2.1.

CNC[C@H](O)c1cccc(O)c1.Cl
solubility (mole fraction)
Settings	in 2-butoxyethanol	in 2-ethoxyethanol	in 2-methoxyethanol	in 2-propoxyethanol	in DMF	in NMP	in ethanol	in isopropanol	in methanol	in n-propanol
278.15 K	0.00496	0.0254	0.114	0.00782	0.185	0.154	0.0138	0.00201	0.0715	0.00469
283.15 K	0.00611	0.0305	0.122	0.01	0.198	0.161	0.0168	0.00251	0.0811	0.00586
288.15 K	0.00811	0.0386	0.131	0.0132	0.21	0.169	0.0195	0.00335	0.09	0.00728
293.15 K	0.0102	0.0465	0.14	0.0162	0.222	0.178	0.0233	0.00409	0.101	0.00905
298.15 K	0.0126	0.0553	0.147	0.0195	0.236	0.186	0.0287	0.00492	0.111	0.0107
303.15 K	0.016	0.0654	0.161	0.0244	0.251	0.198	0.034	0.0062	0.123	0.0133
308.15 K	0.0195	0.0761	0.171	0.0304	0.265	0.208	0.0404	0.00768	0.136	0.0163
313.15 K	0.0248	0.0903	0.183	0.0376	0.284	0.22	0.047	0.00931	0.15	0.0196
318.15 K	0.0306	0.106	0.195	0.0462	0.299	0.232	0.0554	0.0113	0.165	0.0236
323.15 K	0.0372	0.122	0.21	0.0566	0.315	0.246	0.0654	0.0138	0.182	0.0282
